Read-outs that look alike come from different tables or passages of the source.
How the values were obtained:
Type in all cases: biochemical
full-length WRN helicase [1] = molecular target: T1, full-length WRN helicase (Homo sapiens, UniProt Q14191); assay: Radiometric helicase inhibitor assay, full-length WRN unwinding of FORKR DNA substrate; settings: for remaining activity at 50 µM: read-out: % Control WRN Helicase Activity; for IC50: radiometric assay, compound 0-100 μM, read-out: IC50;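 as to all read-outs here: WRN preincubated with compound 15 min at room temperature, then unwinding run 15 min at 37 °C with 2 mM ATP, relative to WRN unwinding without compound (100%)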
T1 construct: Full length recombinant WRN [18], BLM [19], and FANCJ [20] proteins were purified from insect cells; made in house; host or cells: insect cells
Protocol: Fifteen μL of reaction buffer was added to a microcentrifuge tube followed by the addition of 1 μL of selected compounds (0.5–100 μM final concentration) or DMSO. One μL of WRN (full length), RECQ1, FANCJ, BLM or control was added to each reaction and incubated at room temperature for 15 min. Three μL of substrate (0.5 nM FORKR and 2 mM ATP final concentrations) were added to all reactions which were incubated at 37°C for 15 min. Reactions were stopped with the addition of 20 μL of 2X STOP dye containing EDTA, glycerol, bromphenol blue and xylene cyanol. Samples were electrophoresed for 1.5 hr at 200 V on a 12% non-denaturing PAGE gel in 1X TBE Buffer.
The compounds were tested at a single concentration of 50 μM in the radiometric helicase assay with full-length recombinant WRN protein (1 nM) and the FORKR DNA substrate (0.5 nM) as described in the Materials and Methods section.
For each compound, we performed titrations over a wide range of concentrations with a fixed concentration of full-length WRN protein (1 nM), and quantitated unwinding as a percentage of full-length WRN unwinding of the FORKR DNA substrate (0.5 nM) in the absence of compound (Fig 6A and 6B, S3 Fig). […] In addition to determining an IC50 value for each compound, we also conducted helicase assays to determine the reversibility of inhibition by each compound tested. […] The reaction was diluted 100-fold with the addition of DNA substrate (0.5 nM final concentration) and ATP (2 mM final concentration) and unwinding was measured (Fig 7A–7D, S4 Fig). Inhibition was either classified as reversible, partially reversible, minimally reversible, or irreversible based on the ability of helicase activity to recover after dilution of the compound 100-fold.

full-length WRN helicase [2] = molecular target: T1, full-length WRN helicase; assay: Radiometric helicase inhibitor reversibility assay (100-fold dilution); design: key to Reversibility: (-) = irreversible; (+) = minimally reversible; (++) = partially reversible; (+++) = reversible; settings: for Reversibility: WRN 100 nM preincubated at 10-fold IC50, diluted 100-fold, unwinding 0-16 min; for Reversibility of inhibition (in words): full-length WRN
Protocol: WRN (full length, 100 nM concentration) was incubated with each small molecule inhibitor at a concentration 10-fold higher than the IC50 for that inhibitor, in a 10 μL reaction at room temperature. 1.5 μL of this reaction was added to 148.5 μL of reaction salts with 2 mM ATP, 0.5 nM FORKR reducing the full length WRN concentration to 1 nM and the drug concentration to 10-fold less than its IC50. Reactions were placed at 37°C and 20 μL of reaction were removed at specific intervals (0–16 min) and quenched with 20 μL of 2X STOP dye containing EDTA, glycerol, bromphenol blue and xylene cyanol. Samples were electrophoresed for 1.5 hr at 200 V on a 12% non-denaturing PAGE gel in 1X TBE Buffer.
Eighteen compounds were selected based on potency of inhibition in both the screening and radiometric assays, and exclusion of compounds with undesired chemical features. For each compound, we performed titrations over a wide range of concentrations with a fixed concentration of full-length WRN protein (1 nM), and quantitated unwinding as a percentage of full-length WRN unwinding of the FORKR DNA substrate (0.5 nM) in the absence of compound (Fig 6A and 6B, S3 Fig). […] In addition to determining an IC50 value for each compound, we also conducted helicase assays to determine the reversibility of inhibition by each compound tested. Details of the assay can be found in the Materials and Methods section, but briefly 100 nM WRN was incubated with each compound at a concentration 10-fold higher than its IC50 value. The reaction was diluted 100-fold with the addition of DNA substrate (0.5 nM final concentration) and ATP (2 mM final concentration) and unwinding was measured (Fig 7A–7D, S4 Fig). Inhibition was either classified as reversible, partially reversible, minimally reversible, or irreversible based on the ability of helicase activity to recover after dilution of the compound 100-fold. Table 2 summarizes the IC50 values and reversibility for each compound and includes IC50 values obtained from the screens for comparison.

[3] = molecular target: T2, GST-WRN500-946 helicase domain fragment (Homo sapiens, UniProt Q14191); assay: High-throughput fluorometric helicase screen, PubChem AID 651768; settings: initial qHTS; 20 nM GST-WRN500-946; 100 nM FORKF; NA = Not Active; read-out: IC50 (μM) Assay ID 651768
T2 construct: made in house; host or cells: insect cells
Protocol: (§1) The structures of the members of this collection are available in the PubChem portal https://pubchem.ncbi.nlm.nih.gov/. For both the 350,000 small molecule collection and the LOPAC^1280 screens, 3 μL of GST-WRN500-946 or reaction buffer only were dispensed using a solenoid-valve nanoliter dispenser into a black 1536-well plate (Greiner). Twenty three nL of each serially diluted compound (0.08–50 μM for the LOPAC screen and 0.003–114 μM for the larger library screen) or control were added to each well using a Kalypsys pintool equipped with a 1536-pin array. Plates were incubated at room temperature for 15 min, followed by initiation of the reactions via the addition of 1 μL of substrate (100 nM FORKF and 2 mM ATP final concentrations). Plates were transferred to a ViewLux high-throughput CCD imager and fluorescence was measured in kinetic mode using an excitation filter of 525 nm and emission filter of 598 nm.
(§2) Zʹ factor, a measure for assay quality control was calculated using the formula Z′ = 1−(3σS^++3σS^−)∕|μS^+−μS^−| as described previously. In this formula, 3σS^+ represents 3 standard deviations from the mean of positive signals while 3σS^− represents 3 standard deviations from the mean of negative signals. μS^+ and μS^− represent the mean of positive signals and negative signals respectively. Percent activity was derived using in-house software (http://tripod.nih.gov/curvefit/). Dose-response curves were classified as described previously.
(§3) A collection of approximately 350,000 compounds is available for screening which has been assembled from multiple sources to provide diverse chemical scaffolds with known purity, identity and solubility. To perform the high-throughput screen of these compounds, we needed to produce approximately 50 milligrams of recombinant WRN helicase fragment. To accomplish this, we cloned the helicase domain fragment into several plasmids for either insect cell or bacterial expression to optimize expression and yield. We selected expression plasmids for insect cell expression with either a GST or MBP tag (image A in S1 Fig) and purified the protein (image B in S1 Fig). The GST-WRN500-946 fragment isolated from insect cells was used in the high throughput screen with the conditions described in Fig 2C (20 nM GST-WRN500-946, 100 nM FORKF DNA substrate) and a summary of the results can be found on PubChem (National Center for Biotechnology Information. PubChem BioAssay Database; Assay Identifier (AID) = 651768, https://pubchem.ncbi.nlm.nih.gov/bioassay/651768). […] To verify the active compounds, approximately 600 hit molecules were retested in a confirmatory screen also found on PubChem (National Center for Biotechnology Information. PubChem AID = 720497, https://pubchem.ncbi.nlm.nih.gov/bioassay/720497). Of these, a little less than four hundred compounds were confirmed as active compounds.

[4] = molecular target: T2, GST-WRN500-946 helicase domain fragment; assay: Confirmatory fluorometric helicase screen, PubChem AID 720497; settings: 20 nM GST-WRN500-946, 100 nM FORKF, NA = Not Active, read-out: IC50 (μM) Assay ID 720497
Protocol: as §1, §2, §3

[5] = molecular target: T3, WRN helicase domain fragment (Homo sapiens, UniProt Q14191); assay: WRN-hel-f2 protocol qHTS confirmatory (15 compound confirmatory assay); settings: NA = Not Active
T3 construct: GST (N); made in house
Protocol: as §1

[6] = 50 μM compound, full-length WRN 1 nM, FORKR 0.5 nM
[7] = full-length WRN 1 nM, FORKR 0.5 nM

T1 sequence (Q14191 whole entry): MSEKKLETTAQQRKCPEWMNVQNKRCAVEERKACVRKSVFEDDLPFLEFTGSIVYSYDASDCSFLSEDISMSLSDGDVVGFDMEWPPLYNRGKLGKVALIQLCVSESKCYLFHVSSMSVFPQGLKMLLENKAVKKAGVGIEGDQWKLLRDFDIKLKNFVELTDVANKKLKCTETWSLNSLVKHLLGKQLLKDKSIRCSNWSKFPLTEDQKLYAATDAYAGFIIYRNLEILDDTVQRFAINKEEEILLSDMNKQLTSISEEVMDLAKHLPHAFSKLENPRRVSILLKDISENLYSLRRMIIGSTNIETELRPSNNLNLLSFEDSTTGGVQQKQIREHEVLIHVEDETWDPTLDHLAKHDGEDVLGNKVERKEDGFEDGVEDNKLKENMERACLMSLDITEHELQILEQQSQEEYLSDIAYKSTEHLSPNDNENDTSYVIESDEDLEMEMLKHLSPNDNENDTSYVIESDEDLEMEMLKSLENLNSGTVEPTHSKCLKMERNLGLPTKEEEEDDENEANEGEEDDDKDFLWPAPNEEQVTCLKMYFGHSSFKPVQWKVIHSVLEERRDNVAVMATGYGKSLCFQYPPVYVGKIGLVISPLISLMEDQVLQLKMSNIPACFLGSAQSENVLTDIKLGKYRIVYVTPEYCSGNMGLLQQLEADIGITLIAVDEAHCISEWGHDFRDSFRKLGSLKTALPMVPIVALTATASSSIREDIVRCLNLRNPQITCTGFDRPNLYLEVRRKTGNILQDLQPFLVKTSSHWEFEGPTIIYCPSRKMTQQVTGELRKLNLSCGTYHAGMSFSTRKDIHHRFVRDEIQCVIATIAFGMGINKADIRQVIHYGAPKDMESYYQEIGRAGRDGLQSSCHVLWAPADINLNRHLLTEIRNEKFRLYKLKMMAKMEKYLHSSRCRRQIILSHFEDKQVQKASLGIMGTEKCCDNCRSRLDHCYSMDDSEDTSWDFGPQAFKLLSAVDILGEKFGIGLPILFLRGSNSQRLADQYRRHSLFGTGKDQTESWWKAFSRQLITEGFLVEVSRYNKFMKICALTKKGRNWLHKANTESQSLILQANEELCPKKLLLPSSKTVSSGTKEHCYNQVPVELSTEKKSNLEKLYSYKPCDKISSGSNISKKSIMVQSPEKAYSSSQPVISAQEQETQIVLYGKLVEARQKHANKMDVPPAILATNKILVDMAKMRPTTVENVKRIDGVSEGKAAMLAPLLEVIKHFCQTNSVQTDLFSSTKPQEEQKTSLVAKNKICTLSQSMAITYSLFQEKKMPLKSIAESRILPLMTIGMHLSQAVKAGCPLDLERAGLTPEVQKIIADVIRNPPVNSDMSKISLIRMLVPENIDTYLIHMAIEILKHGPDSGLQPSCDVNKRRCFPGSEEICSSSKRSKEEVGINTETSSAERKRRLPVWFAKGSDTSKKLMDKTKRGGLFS
T3 sequence (Q14191 500-946): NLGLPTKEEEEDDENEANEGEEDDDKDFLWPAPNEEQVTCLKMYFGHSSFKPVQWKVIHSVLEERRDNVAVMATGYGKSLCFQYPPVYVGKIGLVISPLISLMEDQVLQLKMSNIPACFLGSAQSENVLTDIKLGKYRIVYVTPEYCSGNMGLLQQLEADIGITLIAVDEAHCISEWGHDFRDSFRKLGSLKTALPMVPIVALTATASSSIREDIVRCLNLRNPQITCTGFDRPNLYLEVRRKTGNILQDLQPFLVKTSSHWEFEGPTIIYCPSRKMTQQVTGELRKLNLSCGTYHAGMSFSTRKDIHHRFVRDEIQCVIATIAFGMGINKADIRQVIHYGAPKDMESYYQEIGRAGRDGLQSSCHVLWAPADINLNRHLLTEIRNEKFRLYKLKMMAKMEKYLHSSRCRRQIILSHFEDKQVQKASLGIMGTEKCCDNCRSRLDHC
T2 sequence (Q14191 500-946): as above

Row | SMILES | remaining activity at 50 µM (full-length WRN helicase [1]; [6]) | IC50 (full-length WRN helicase [1]; [7]) | Reversibility (full-length WRN helicase [2]) | IC50 [3] | IC50 [5] | also measured
1 | Oc1ccc(C2=CSc3nnc(-c4ccco4)n3N2)cc1O [MLS000551562-03] | 92% |  |  |  |  | 
2 | COc1ccc(N[S+](=O)([O-])c2cc(C(=O)Nc3ccc4nc(C)sc4c3)ccc2C)cc1 [NCGC00348187-01] |  |  |  |  |  | remaining activity at 50 µM (full-length WRN helicase [1]): 83%
3 | O=C(Nc1nncs1)c1cc(-c2ccco2)nc2ccccc12 [MLS002249549-02] | 69% |  |  |  |  | 
4 | CN(C)CC(C(=O)Cc1ccccc1)c1ccccc1 (centres unmarked) [MLS002608145-02] |  |  |  |  |  | remaining activity at 50 µM (full-length WRN helicase [1]): 93%
5 | COc1ccc(-c2cc(C(F)(F)F)nc([S+](=O)([O-])CCC(=O)Nc3ccc(C)cc3)n2)cc1 [NCGC00317517-02] |  |  |  |  |  | remaining activity at 50 µM (full-length WRN helicase [1]): 93%
6 | Cc1ccc(C(=O)Nc2nnc([S+](=O)([O-])N(C)Cc3ccco3)s2)cc1 [NCGC00120906-02] |  | 9 µM | - | 37.6 µM | 5.6 µM | remaining activity at 50 µM (full-length WRN helicase [1]): 33%; Reversibility of inhibition (in words) (full-length WRN helicase [2]): irreversible
7 | Cc1ccc(-c2nc(SCc3ccc(Br)cc3)n3[nH]c(=O)cc3n2)cc1 [NCGC00129037-02] | 7% | 9 µM | - | 16.8 µM | 12.5 µM | IC50 [4]: 13.6 µM
8 | CCc1ccc(NC(=O)c2ccc3c(O)c([S+](=O)([O-])c4ccc(Cl)cc4)c(=O)[nH]c3c2)cc1 [NCGC00123016-02] |  | 50 µM | +++ | 26.6 µM | 39.8 µM | remaining activity at 50 µM (full-length WRN helicase [1]): 20%
9 | Cc1cn(C)c(CC(=O)N2CCN(c3ccccc3F)CC2)c1C(=O)O [NCGC00137904-02] | 108% |  |  |  |  | 
10 | Cc1ccc(N2CCN(c3cnn(-c4nc5ccccc5s4)c(=O)c3Cl)CC2C)cc1 (centres unmarked) [NCGC00295201-02] | 9% | 10 µM | +++ | 35.4 µM | 25.1 µM | 
11 | O=C(O)c1ccccc1-c1ccc(/C=C/c2cc(C(F)(F)F)nc(O)n2)o1 [MLS000715904-02] | 76% |  |  |  |  | 
12 | CCCN(CCC)CCCNC(=O)c1cc2c(-c3ccc(OC)c(OC)c3)nn(C)c2s1 [NCGC00108865-03] | 109% |  |  |  |  | 
13 | COc1ccc(N2CCN(C(=O)Cc3c(C(=O)O)c(C)cn3C)CC2)cc1 [NCGC00137930-02] | 99% |  |  |  |  | 
14 | CN(Cc1ccco1)[S+](=O)([O-])c1nnc(NC(=O)c2cccc(Cl)c2)s1 [NCGC00120928-02] | 13% | 15 µM | - | 39.8 µM | 12.5 µM | Reversibility of inhibition (in words) (full-length WRN helicase [2]): irreversible

More lines, main results first:

Row | remaining activity at 50 µM (full-length WRN helicase [1]; [6]) | IC50 (full-length WRN helicase [1]; [7]) | Reversibility (full-length WRN helicase [2]) | IC50 [3] | IC50 [5] | SMILES | also measured
15 | 64% |  |  |  |  | Cc1cc(OCC(=O)Nc2ccc(N3CCN(C(=O)c4ccco4)CC3)cc2)cc(C)c1Cl [MLS000582679-02] | 
16 | 5% |  |  |  |  | Cc1ccc(C)c(NC(=O)CN(C)C(=O)c2cccc(-n3cccc3)c2)c1 [MLS001161412-02] | 
17 | 65% |  |  |  |  | Cc1cc(OC(C)C(=O)Nc2cccc(-c3nc4ccccc4o3)c2)cc(C)c1Cl (centres unmarked) [NCGC00119189-02] | 
18 | 0% | 5 µM | - | 7.5 µM | 6 µM | O=c1cc(N2CCNCC2)nc2sc(-c3ccncc3)nn12 [NCGC00183602-01] | IC50 [4]: 6.1 µM
19 | 10% | 2 µM | + | 16.8 µM | 1.26 µM | COC(=O)c1cc(NC(=O)c2ccc3c(c2)NC(=O)c2ccccc2S3)cc(C(=O)OC)c1 [NCGC00113056-02] | IC50 [4]: 13.6 µM
20 | 8% | 11 µM | + | 44.6 µM | 22.4 µM | Cc1ccc(CN(C)C(=O)CCc2nc(O)c3c4c(sc3n2)CCCC4)o1 [MLS001160745-02] | IC50 [4]: 9.6 µM
21 | 5% | 5 µM | +++ | 50.1 µM | 28.1 µM | CC(C)(C)c1ccc(-c2nc(SCCCOc3ccccc3)n3[nH]c(=O)cc3n2)cc1 [NCGC00128735-02] | 
22 | 99% |  |  |  |  | O=c1[nH]c2ccccc2n2c(-c3ccccc3)nnc12 [MLS000540817-03] | 
23 | 113% |  |  |  |  | COc1ccccc1N1CCN(C(=O)Cc2c(C(=O)O)c(C)cn2C)CC1 [NCGC00137902-02] | 
24 | 0% |  |  |  |  | Oc1c(C(c2ccccc2)N2CCOCC2)ccc2ccccc12 (centres unmarked) [MLS002694128-02] | 
25 | 42% |  |  |  |  | COc1ccc2nc(O)c(-c3noc(-c4cccs4)n3)cc2c1 [NCGC00307457-02] | 
26 | 30% | 25 µM | - | 11.9 µM |  | CC1=C(C(=O)Nc2ccccc2)C(c2ccc[nH]2)n2ncnc2N1 (centres unmarked) [NCGC00132363-04] | IC50 [4]: 7.6 µM
27 | 93% |  |  |  |  | CCc1nnc(NC(=O)c2cc(-c3ccc(C)o3)nc3ccccc23)s1 [MLS002179845-02] | 
28 | 100% |  |  |  |  | Cc1nn(-c2ccccc2)c2nc(-c3ccco3)cc(C(=O)O)c12 [MLS000060726-02] | 

— PMC6326523, “A high-throughput screen to identify novel small molecule inhibitors of the Werner Syndrome Helicase-Nuclease (WRN)” (PLoS ONE, 2019)
